In patent US4436752A, “Treatment of gastric and gastro-duodenal disorders with derivatives of phenyl aliphatic carboxylic acids” (Roussel Uclaf, priority 1981, dated 1984):

Assays:
[1] = tested on: ulcers in rats at the level of the stomach; assay: Determination of the anti-ulcer activity (SHAY's technique, ulcers induced by ligature of the pylorus); format: in vivo; settings: rat, per os, about 16 hours after treatment
Text: (1) Determination of the anti-ulcer activity
The technique used is described by SHAY et al. in Gastroenterology, 5, 43 (1945).
SHAY's technique consists of inducing ulcers in rats at the level of the stomach by ligature of the pylorus.
The animals are anesthetized with ether. A longitudinal incision is made about 1 cm below the sternum, the glandular portion of the stomach and the duodenum are uncovered and a ligature is placed a few millimeters below the pylorus. The muscular plane is left as is and the skin is sutured by two clips.
The animals then immediately receive the dispersive or the substance to be studied per os in a volume of 0.5 ml/100 g, and are kept without food or drink until sacrificed by carotid section, effected about 16 hours after the treatment.
Before removing the stomach, a ligature is placed above the cardia.
The gastric fluid is collected in order to measure its pH.
The stomach is then opened along the greater curvature, rinsed in physiological serum and spread on graph paper in order to be examined under a binocular lens.
The severity of the lesions, graded from 0 to 4 for each stomach, is then evaluated macroscopically.
The average intensity of the ulcerations is determined for each lot of rats and the protection is calculated as the ratio of the mean index for the treated group to the mean index for the control group.
The pH of the gastric fluid is also determined for the treated animals and the control animals.

[2] = Determination of acute toxicity (LD50, oral route); settings: mouse, in vivo, mice
Protocol: (2) Determination of acute toxicity
The lethal dose LD50 of the derivatives of Examples 1 and 2 was evaluated after administration by oral route to mice.

SMILES | Ulceration % protection, with respect to the controls ([1]; 100 mg/kg) [%] | pH of the gastric fluid, treated animals ([1]; 100 mg/kg, control animals 2.7) | LD50 [2] [mg/kg] | Ulceration % protection, with respect to the controls ([1]; 0.8 mg/kg) [%] | pH of the gastric fluid, treated animals ([1]; 0.8 mg/kg, control animals 3.5) | Ulceration % protection, with respect to the controls ([1]; 4 mg/kg) [%] | pH of the gastric fluid, treated animals ([1]; 4 mg/kg, control animals 3.2) | Ulceration % protection, with respect to the controls ([1]; 20 mg/kg) [%] | pH of the gastric fluid, treated animals ([1]; 20 mg/kg, control animals 3.2)
COc1ccc(C(=O)CC(O)C(=O)O)c(OC)c1OC (stereo not shown) [Example 1, 4-(2,3,4-trimethoxyphenyl)-4-oxo-2-hydroxy butanoic acid] | 41 | 3.3 | > 1000 |  |  |  |  |  | 
COc1ccc(C(=O)/C=C/C(=O)O)c(OC)c1OC [Example 2, (E) 4-(2,3,4-trimethoxyphenyl)-4-oxo-2-butenoic acid] |  |  | ~300 | 17 | 3.1 | 76 | 3.7 | 99 | 5.8
